Results: patent US11221334B2, “Method for determining breast cancer treatment” (THE REGENTS OF THE UNIVERSITY OF COLORADO, A BODY CORPORATE, priority 2012, dated 2022)

Assays:
breast cancer = assay: Tamoxifen study: adjuvant tamoxifen cohort, Kaplan-Meier by AR:ER ratio; type: in vivo, female patients
MCF7-TGL cells = settings: for decrease in whole body luminescence: day 11
Protocol: Tumor studies. […] Briefly, 10^6 MCF7-TGL cells stably expressing a triple fusion of thymidine kinase, GLP and luciferase (SFG-NES-TGL retroviral vector) for IVIS imaging purposes were mixed with Matrigel (BD Biosciences) and injected into the fourth inguinal mammary fat pad of female, ovariectomized athymic nu/nu or non-obese diabetic (NOD)/SCID mice (Taconic). At time of tumor injection, E2 pellets (60-day release, 1.5 mg/pellet, Innovative Research of America) or DHT (8 mg/pellet, packed and sealed in silastic tubing) were implanted subcutaneously (SQ) at the back of the neck. Tumor burden was assessed using in vivo imaging system (IVIS) or caliper measurements. Once the tumors had established, the mice were matched into groups on the basis of total tumor burden as measured by IVIS or caliper. […] The feed was irradiated and stored at 4° C. before use. […] All mice were given free access to MDV3100 mixed with chow or control chow during the entire study period and at an average of 3.5 g/day food intake. Feed was changed in the animal cages twice a week. Water and feed were prepared ad libitum. Two hours prior to sacrifice, mice were injected IP with 50 mg/kg BrDU (Sigma-Aldrich). Mice were euthanized by CO2 asphyxiation followed by cervical dislocation and blood, tumors, colon, uteri and mammary glands were harvested.
Immunohistochemistry. Slides were deparaffinized in a series of xylenes and ethanols and antigens were heat retrieved in either 10 mM citrate buffer pH 6.0 (BrdU, Ki67) or 10 mM Tris/1 mM EDTA buffer at pH 9.0 (AR, ER, caspase 3). Tissue for BrdU was incubated in 2N HCl followed by 0.1M sodium borate following antigen retrieval. […] Envision-HRP (Dakocytomation) was used for antibody detection. TUNEL staining for apoptosis was performed using the ApopTag Plus Peroxidase In Situ Apoptosis Detection Kit (Millipore), as per manufacturer's instructions. […] For BrdU and TUNEL staining in xenograft studies, three separate 200× fields of each xenograft tumor were taken using an Olympus BX40 microscope (Center Valley, Pa.) with a SPOT Insight Mosaic 4.2 camera and software (Diagnostic Instruments, Inc., Sterling Heights, Mich.). A color threshold (RGB for positive staining nuclei, and HSB for total nuclei) was adjusted manually using ImageJ (National Institutes of Health) for each image, and particles created by the thresholds were analyzed for total area. RGB area was divided by HSB area and multiplied by 100 for each image. For analysis of the nuclear androgen receptor, cleaved caspase 3 and Ki67, slides were scanned at 20× on an Aperio Scan ScanScope XT. Mammary tumor tissue was traced separately for each tumor and necrotic areas of the tumor removed using a negative pen tool in Aperio's Scanscope software. A Nuclear Algorithm was utilized to measure the percent positive cells for the Ki-67 and Androgen Receptor stained slides and the data exported. Cleaved Caspase 3 stained slides were analyzed using a modified Positive Pixel Count algorithm.

ERα = target: T1, ERα (Homo sapiens, UniProt P03372); assay: Radioligand binding assay, [3H] Estradiol displacement; settings: 0.5 nM [3H] Estradiol; 0.1 μM to 100 μM
T1 construct: purchased Ricera Biosciences, LLC (contract assay)
T1 sequence (P03372 1-595): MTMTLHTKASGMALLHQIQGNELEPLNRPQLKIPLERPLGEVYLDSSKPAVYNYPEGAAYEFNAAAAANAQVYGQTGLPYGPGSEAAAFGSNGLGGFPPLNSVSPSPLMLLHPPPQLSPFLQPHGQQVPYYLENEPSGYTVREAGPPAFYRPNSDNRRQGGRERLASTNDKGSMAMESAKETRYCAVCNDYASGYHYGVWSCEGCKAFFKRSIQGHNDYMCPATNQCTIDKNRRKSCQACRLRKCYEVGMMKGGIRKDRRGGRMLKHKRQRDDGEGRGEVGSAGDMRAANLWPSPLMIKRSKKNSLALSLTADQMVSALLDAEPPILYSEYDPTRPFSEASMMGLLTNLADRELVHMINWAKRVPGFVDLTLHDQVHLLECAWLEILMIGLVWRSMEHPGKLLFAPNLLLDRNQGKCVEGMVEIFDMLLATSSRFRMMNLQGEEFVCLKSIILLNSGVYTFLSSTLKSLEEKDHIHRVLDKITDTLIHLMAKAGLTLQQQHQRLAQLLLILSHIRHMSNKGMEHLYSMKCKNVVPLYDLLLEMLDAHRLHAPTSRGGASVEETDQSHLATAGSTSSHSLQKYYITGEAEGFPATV

ERβ = target: T2, ERβ (Homo sapiens, UniProt Q92731); assay: as above; settings: 0.5 nM [3H] Estradiol; 0.1 μM to 100 μM
T2 construct: purchased Ricera Biosciences, LLC (contract assay)
T2 sequence (Q92731 whole entry): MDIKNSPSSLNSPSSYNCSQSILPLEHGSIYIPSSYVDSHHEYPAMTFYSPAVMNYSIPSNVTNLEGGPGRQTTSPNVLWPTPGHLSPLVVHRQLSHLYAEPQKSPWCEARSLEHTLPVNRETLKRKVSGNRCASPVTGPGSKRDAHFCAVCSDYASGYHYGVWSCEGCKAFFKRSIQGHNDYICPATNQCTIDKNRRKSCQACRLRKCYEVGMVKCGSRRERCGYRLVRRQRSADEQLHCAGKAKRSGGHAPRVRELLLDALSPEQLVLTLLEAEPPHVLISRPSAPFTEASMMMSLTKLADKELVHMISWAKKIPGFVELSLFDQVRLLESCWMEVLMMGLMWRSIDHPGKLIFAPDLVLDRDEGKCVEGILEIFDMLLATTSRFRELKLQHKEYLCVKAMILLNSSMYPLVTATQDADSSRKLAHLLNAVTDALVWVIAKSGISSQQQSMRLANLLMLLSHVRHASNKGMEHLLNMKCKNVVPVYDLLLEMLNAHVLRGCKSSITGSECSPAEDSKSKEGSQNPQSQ

[1] = test system: AR-dependent MMTV-luciferase reporter; assay: Luciferase assay in MDA-kb2 cells; type: cell-based, human; settings: Enza 10, 1, 0.1 μM, DHT, 24 h
Protocol: Luciferase Assays. MDA-kb2 cells were plated at 5×10^3 cells/well in 96-well luminescence plates and incubated overnight. Cells were treated with 10-fold serial dilutions of Enza (10, 1, 0.1 μM) and DHT (10, 1, 0.1, 0.01, 0.001 nM) that were prepared in DMSO. Following 24 h of incubation, the luminescence levels were determined with the luciferase assay system (Promega). Three independent experiments were performed and the luminescence values were determined as relative units (R.U.) and normalized to vehicle. Values were expressed as the mean fold induction±standard error (SE).

PR, SDF-1 = assay: qPCR of estrogen responsive genes PR and SDF-1; type: cell-based
Protocol: For FASN, PRLR and GCDFP-15, SYBR green quantitative gene expression analysis was performed using the following primers: FASN [NT] ID NO: 1), FASN […] ID NO: 2); PRLR [NT] ID NO: 3), PRLR […] ID NO: 4); […] ID NO: 5), […] ID NO: 6); 18[…] ID NO: 7), 18[…] ID NO: 8). For PR and SDF-1, taqman real time PCR was performed using validated primer/probe sets from Applied Biosystems (assay IDs: PR Hs01556702_ml, SDF-1 Hs00171022 ml, 18S Hs99999901_sl). Relative gene expression was calculated using the comparative Ct method and values were normalized to 18S.

[2] = E2 pellet, chow 50 mg/kg enzalutamide or tamoxifen pellet

Structure (SMILES) | mean time to failure (breast cancer; AR:ER<1.3) | median time to failure (breast cancer; AR:ER<1.3) | median time to failure (breast cancer; AR:ER>=1.3) | mean time to failure (breast cancer; higher AR:ER ratio group (cut point 1.3)) | decrease in cell proliferation compared to the E2 group (BrdU incorporation) (MCF7-TGL cells; [2]) | decrease in whole body luminescence (MCF7-TGL cells; [2]) | binding to ERα (ERα) | binding to ERβ (ERβ) | activation of androgen responsive luciferase reporter [1] | E2-induced upregulation of PR and SDF-1 mRNA (PR, SDF-1) | decrease in AR nuclear localization in tumors (MCF7-TGL cells; DHT pellet, chow 50 mg/kg) | increase in apoptotic cells (TUNEL staining) (MCF7-TGL cells; DHT pellet, chow 50 mg/kg) | decrease in luminescence as compared to the DHT group (MCF7-TGL cells; DHT pellet, chow containing 50 mg/kg enzalutamide, day 19, IVIS) | tumor burden (MCF7-TGL cells; DHT pellet, enzalutamide by oral gavage) | apoptosis under E2-stimulated growth conditions (MCF7-TGL cells; E2 pellet)
CC/C(=C(\c1ccccc1)c1ccc(OCCN(C)C)cc1)c1ccccc1 [tamoxifen] | 45+/−2.3 months | > 120 months | 30+/−2 months | 29+/−4.3 months | 46.4% | 59.9% |  |  |  |  |  |  |  |  | 
CNC(=O)c1ccc(N2C(=S)N(c3ccc(C#N)c(C(F)(F)F)c3)C(=O)C2(C)C)cc1F [enzalutamide] |  |  |  |  |  | 70.3% | did not significantly bind | did not significantly bind | inhibited activation of the luciferase construct in a dose dependent manner | inhibited | 92.5% | 50% | 83.2% | decreased in a dose dependent manner | did not induce apoptosis
